These results are taken from the supplement of paper PMC10307832.

Test in all cases: relative viability (nuclei count vs DMSO), 5 days (fraction); higher = more cells survive
Compound in assay [1]: C1CNCCC1C2=CC(=NN2)C3=CC=NC=C3 + C[C@@H](Oc1cc(-c2cnn(C3CCNCC3)c2)cnc1N)c1c(Cl)ccc(F)c1Cl [Crizotinib] (partner 1 µM)
Summed up:
(§1)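 Lung cancer cell lines in 1536-well plates were dosed by pin tool the day after seeding, either with one drug alone or with a fixed anchor-drug dose plus five library-drug doses (not always all listed) in √10 steps. After 5 days, cells were fixed and their nuclei stained in one step (final 0.05% Triton X-100, 1% formaldehyde, 1 ug/ml Hoechst), then counted on 4× images. Relative viability is the nuclei count in treated wells divided by that in vehicle wells. Values are medians of duplicate plates.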

Compound in assay [2]: C1CNCCC1C2=CC(=NN2)C3=CC=NC=C3 + N=C(N)NC(=N)NCCc1ccccc1 [Phenformin] (partner 250 µM)
An outline of the steps:
as §1

Compound in assay [3]: C[C@@H](N)c1ccc(C(=O)Nc2ccnc3[nH]ccc23)cc1 + Cc1nc(Nc2ncc(C(=O)Nc3c(C)cccc3Cl)s2)cc(N2CCN(CCO)CC2)n1 [Dasatinib] (partner 0.075 µM)
Summed up:
as §1

Compound in assay [4]: O[C@H]1CC[C@H](Nc2ncc3nc(Nc4c(F)cc(F)cc4F)n([C@H]4CCOC4)c3n2)CC1 [Tanzisertib] + CC(C)C[C@H](NC(=O)[C@H](Cc1ccccc1)NC(=O)c1cnccn1)B(O)O [Bortezomib] (partner 0.002 µM)
Summed up: as §1

Turning to NCI-H3122, the relative viability in assay [1] (first compound 0.08 µM) came out at 0.303; in assay [1] (first compound 0.8 µM), 0.265; in assay [1] (first compound 2.53 µM) it was 0.255; in assay [1] (first compound 8 µM) it was 0.283; in assay [2] (first compound 0.08 µM) it was 0.329; in assay [2] (first compound 0.8 µM), 0.414. The relative viability in assay [2] (first compound 2.53 µM) was 0.402; in assay [2] (first compound 8 µM) it was 0.364; in assay [3] (first compound 0.04 µM) it was 1.06; in assay [3] (first compound 0.1265 µM), 0.882; in assay [3] (first compound 0.4 µM) it was 0.919; in assay [3] (first compound 1.265 µM), 0.455. The relative viability in assay [3] (first compound 4 µM) turned out to be 0.915; in assay [4] (first compound 0.08 µM), 1.06; in assay [4] (first compound 0.253 µM) it was 1.02; in assay [4] (first compound 0.8 µM) it was 1.04; in assay [4] (first compound 2.53 µM), 1.03; in assay [4] (first compound 8 µM) it was 1.01.

In the case of PC-3 [JPC-3], the relative viability in assay [1] (first compound 0.08 µM) is 0.941; in assay [1] (first compound 0.8 µM), 1.07; in assay [1] (first compound 2.53 µM) it was 0.971; in assay [1] (first compound 8 µM) it was 0.953; in assay [2] (first compound 0.08 µM) it was 0.499; in assay [2] (first compound 0.8 µM), 0.447. For the same cell line, the relative viability in assay [2] (first compound 2.53 µM) turned out to be 0.494; in assay [2] (first compound 8 µM) it was 0.463; in assay [3] (first compound 0.04 µM), 0.951; in assay [3] (first compound 0.1265 µM), 1; in assay [3] (first compound 0.4 µM), 1.02; in assay [3] (first compound 1.265 µM) it was 0.901. In addition, the relative viability in assay [3] (first compound 4 µM) turned out to be 0.82; in assay [4] (first compound 0.08 µM) it was 0.875; in assay [4] (first compound 0.253 µM), 0.931; in assay [4] (first compound 0.8 µM) it was 0.847; in assay [4] (first compound 2.53 µM), 0.739; in assay [4] (first compound 8 µM) it was 0.716.

PC-14: the relative viability in assay [1] (first compound 0.08 µM) came to 0.917; in assay [1] (first compound 0.8 µM) it was 0.874; in assay [1] (first compound 2.53 µM), 1.04; in assay [1] (first compound 8 µM) it was 0.835; in assay [2] (first compound 0.08 µM) it was 0.529; in assay [2] (first compound 0.8 µM), 0.684. Further, the relative viability is 0.743 in assay [2] (first compound 2.53 µM); 0.579 in assay [2] (first compound 8 µM); 0.216 in assay [3] (first compound 0.04 µM); 0.29 in assay [3] (first compound 0.1265 µM); 0.246 in assay [3] (first compound 0.4 µM); 0.206 in assay [3] (first compound 1.265 µM). Moreover, the relative viability amounted to 0.131 in assay [3] (first compound 4 µM); 1.05 in assay [4] (first compound 0.08 µM); 0.878 in assay [4] (first compound 0.253 µM); 0.879 in assay [4] (first compound 0.8 µM); 1.01 in assay [4] (first compound 2.53 µM); 0.585 in assay [4] (first compound 8 µM).

Consider RERF-LC-KJ, for which the relative viability is 0.872 in assay [1] (first compound 0.08 µM); 0.894 in assay [1] (first compound 0.8 µM); 0.912 in assay [1] (first compound 2.53 µM); 0.759 in assay [1] (first compound 8 µM); 0.391 in assay [2] (first compound 0.08 µM); 0.429 in assay [2] (first compound 0.8 µM). In addition, the relative viability turned out to be 0.438 in assay [2] (first compound 2.53 µM); 0.406 in assay [2] (first compound 8 µM); 0.871 in assay [3] (first compound 0.04 µM); 0.911 in assay [3] (first compound 0.1265 µM); 0.88 in assay [3] (first compound 0.4 µM); 0.778 in assay [3] (first compound 1.265 µM). The relative viability was determined as 0.709 in assay [3] (first compound 4 µM); 1.17 in assay [4] (first compound 0.08 µM); 1.01 in assay [4] (first compound 0.253 µM); 1.04 in assay [4] (first compound 0.8 µM); 1.07 in assay [4] (first compound 2.53 µM); 1.02 in assay [4] (first compound 8 µM).

In the case of SK-LU-1, the relative viability was found to be 1.03 in assay [1] (first compound 0.08 µM); 0.936 in assay [1] (first compound 0.8 µM); 0.989 in assay [1] (first compound 2.53 µM); 0.947 in assay [1] (first compound 8 µM); 0.498 in assay [2] (first compound 0.08 µM); 0.41 in assay [2] (first compound 0.8 µM). For the same cell line, the relative viability was 0.529 in assay [2] (first compound 2.53 µM); 0.57 in assay [2] (first compound 8 µM); 0.132 in assay [3] (first compound 0.04 µM); 0.138 in assay [3] (first compound 0.1265 µM); 0.136 in assay [3] (first compound 0.4 µM); 0.109 in assay [3] (first compound 1.265 µM). For the same cell line, the relative viability was found to be 0.121 in assay [3] (first compound 4 µM); 1.07 in assay [4] (first compound 0.08 µM); 1.19 in assay [4] (first compound 0.253 µM); 1.3 in assay [4] (first compound 0.8 µM); 1.18 in assay [4] (first compound 2.53 µM); 0.493 in assay [4] (first compound 8 µM).

For SW 1573, the relative viability in assay [1] (first compound 0.08 µM) was 0.805; in assay [1] (first compound 0.8 µM) it was 0.713; in assay [1] (first compound 2.53 µM), 0.993; in assay [1] (first compound 8 µM), 0.795; in assay [2] (first compound 0.8 µM), 0.365; in assay [2] (first compound 2.53 µM), 0.376. The relative viability in assay [2] (first compound 8 µM) amounted to 0.471; in assay [3] (first compound 0.04 µM), 0.405; in assay [3] (first compound 0.1265 µM), 0.592; in assay [3] (first compound 0.4 µM), 0.433; in assay [3] (first compound 1.265 µM), 0.259; in assay [3] (first compound 4 µM), 0.231. The relative viability in assay [4] (first compound 0.08 µM) came to 1.09; in assay [4] (first compound 0.253 µM) it was 1.09; in assay [4] (first compound 0.8 µM), 0.946; in assay [4] (first compound 2.53 µM), 1.15; in assay [4] (first compound 8 µM), 0.712.
